This data set is described as follows: gradient 5% acetonitrile 3 min, to 50% in 2 min, to 85% in 15 min, held 3 min, 100 µL/min. To be noted: column: Zorbax Extend-C18 2.1 x 50 mm; eluents: water / acetonitrile, 0.1% formic acid. Summed up: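 Standards, all pure, were combined into mixtures of ~100 molecules and run at 100 μL/min on a Zorbax Extend-C18 column (2.1 × 50 mm, 1.8 μm) with water and acetonitrile, each containing 0.1% formic acid. A coupled quadrupole time-of-flight mass spectrometer operated in positive and negative ionization mode. Retention time values come from computationally picked adduct peaks, each inspected manually.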
As for `O=C(Cn1ccc2c(SCc3ccc(F)cc3)nccc21)N1CCN(c2ccccn2)CC1`, the RP-LC retention time is 595 s. The same measure for `COCCNS(=O)(=O)c1ccc(Cl)c(-c2nnc(-c3ccccc3)o2)c1`: 870 s. `CC1CCCN(CCCNC(=O)c2nc3nc(-c4ccco4)cc(C(F)(F)F)n3n2)C1` (stereo not given): the RP-LC retention time is 641 s.

Regarding `COCCCNC(=O)C1(c2ccc(NC(=O)c3cccs3)cc2)CC1`, the RP-LC retention time was determined as 746 s.

`CN(C)C(CNC(=O)c1cc(=O)c2ccccc2o1)c1ccccc1Cl` (stereo not given): the RP-LC retention time turned out to be 650 s. The same measure for `CCNC(=O)C1CCN(C(=O)Nc2ccc(NC(=O)Nc3ccc(C)cc3C)cc2)CC1`: 729 s; for `CCc1ccc(CNC(=O)c2ccc3ncnc(N4CCCC4)c3c2)cc1`: 697 s. Regarding `COc1ccc(CNS(=O)(=O)c2cc3n(c2)CCN(C(C)C)C3=O)cc1`, the RP-LC retention time was determined as 712 s.

In the case of `CCc1cccc(NS(=O)(=O)c2cc(-c3c(CC)noc3NC(C)=O)ccc2OC)c1`, the RP-LC retention time worked out at 807 s. Compound `COc1ccc(CC(=O)N2CCN(c3cc(C)n4cnnc4n3)CC2)cc1Cl` returned an RP-LC retention time of 611 s. Regarding `CCC(CC)N1CCN(C(=O)c2ccc3[nH]c4c(c3c2)CN(C(=O)C2CCC2)CC4)CC1`, the RP-LC retention time turned out to be 607 s. `Cc1cc(=O)oc2c(C)c(OCC(O)CN3CCC(C(N)=O)CC3)ccc12` (stereo not given): the RP-LC retention time is 579 s. For the compound `COc1ccc(-c2noc(Cc3nc(-c4ccc(Br)cc4)cs3)n2)c(OC)c1`, the RP-LC retention time came out at 1180 s. In the case of `Cc1cc(OCC(=O)Nc2ccccc2C(F)(F)F)nc(N2CCCC(C)C2)n1` (stereo not given), the RP-LC retention time was found to be 734 s.

`CCOC(=O)c1c(C)[nH]c(C(=O)N2CCC(CC(=O)N3CCCCC3)CC2)c1C` showed an RP-LC retention time of 741 s. As for `COc1ccc(C2C(C(=O)NC(C)C)c3cc(OC)c(OC)cc3C(=O)N2C)cc1OC` (stereo not given), the figure is 662 s. As for `Cn1nc(-c2cccc(NC(=O)c3ccc4ccccc4n3)c2)ccc1=O`, the figure is 829 s; as for `O=C(Nc1cc(Cl)cc(Cl)c1)N1CC(Cc2nc(-c3cnccn3)no2)C1`, 838 s; as for `COc1ccccc1-c1noc(C2CCCN2C(=O)Nc2cccc(C)c2)n1` (stereo not given), 881 s.

Compound `CN(C)S(=O)(=O)c1ccc(-c2nnc(C(=O)NC3CCN(Cc4ccccc4)CC3)o2)cc1` came in with an RP-LC retention time of 754 s. As for `O=C1CCCc2cc(S(=O)(=O)N3CCC(C(=O)NCc4ccco4)CC3)ccc2N1`, the figure is 678 s; as for `CCN(CC)C(=O)c1ccc2c(c1)N(CC(=O)N1CCN(c3ccccn3)CC1)C(=O)CO2`, 574 s. `CCCN(C)C(=O)C1CCN(c2cnn(Cc3ccccc3)c(=O)c2)CC1` came in with an RP-LC retention time of 728 s. The same measure for `Cc1ccc(NC(=O)N(C)CC2CCOC2)cc1` (stereo not given): 667 s; for `CCCNC(=O)c1nc(Nc2ccc(F)cc2)c2ccccc2n1`: 746 s; for `COCCNC(=O)C1CCCN(c2cnc3nccnc3c2)C1` (stereo not given): 588 s. For the compound `CC(C)CNC(=O)c1ccc2c(ccn2C)c1`, the RP-LC retention time was 784 s. Consider `COC(=O)C(C)Oc1cc(O)c2c(=O)cc(-c3ccccc3)oc2c1` (stereo not given), for which the RP-LC retention time was 1060 s. As for `O=C(O)c1cc2nc(-c3ccc(F)cc3)cc(C(F)(F)F)n2n1`, the figure is 880 s; as for `O=C1CN(C(=O)Cc2ccccc2Cl)C2(CCCC2)CN1`, 727 s. In turn, `C=CCn1c(=O)c2cnc(Nc3ccc(N4CCN(C)CC4)cc3)nc2n1-c1cccc(C(C)(C)O)n1` had an RP-LC retention time of 644 s. As for `COc1ccc(CC(=O)N2CCN(c3ccc(-c4nc(C)cs4)cn3)CC2)cc1`, the figure is 851 s; as for `CC(C)NC(=O)C1CCCN(C(=O)Nc2ccc(S(=O)(=O)N3CCCCCC3)s2)C1` (stereo not given), 827 s. As for `COCCCNC(=O)C1(C)Cn2nc(-c3ccccc3)cc2C(=O)N1c1ccccc1F` (stereo not given), the figure is 830 s; as for `CCn1c(C)cc(=O)c2cc(C(=O)Nc3nc(C)c(C)s3)ccc21`, 578 s; as for `CC1CCN(Cc2nc(-c3ccc(N4CCCC(C)C4)nc3)no2)CC1` (stereo not given), 695 s.

For the compound `Cc1nc(-c2ccc(-c3noc(CNS(=O)(=O)c4ccccc4)n3)cc2)cs1`, the RP-LC retention time worked out at 960 s. The compound `CCNC(=O)N1CCCC1c1nc(-c2ccccc2OC)no1` (stereo not given) came in with an RP-LC retention time of 698 s.

In turn, `Cc1cc2[nH]c(C(=O)Nc3ccc(F)c(C)c3)c(CN3CCOCC3)c2s1` came in with an RP-LC retention time of 720 s. On to `CCC(O)c1nc2ccccc2n1CC(=O)N(C)c1ccccc1` (stereo not given), for which the RP-LC retention time came to 624 s. `COc1ccc(S(=O)(=O)N2CCC(c3noc(-c4cnccn4)n3)C2)cc1` (stereo not given): the RP-LC retention time came to 784 s. Regarding `Cc1csc(CN2CCN(C(=O)CC(c3ccccc3)c3ccccc3)CC2)n1`, the RP-LC retention time amounted to 665 s.

Turning to `CC(C)(C)C(O)CCNC(=O)C(=O)NCc1ccccc1` (stereo not given), the RP-LC retention time came to 740 s. As for `CS(=O)(=O)N1CCC(C(=O)Nc2ccccc2)Oc2ccc(Cl)cc21` (stereo not given), the RP-LC retention time is 887 s.

`CCOc1ccccc1NC(=O)CN1C(=O)C2CCCCN2c2ccc(S(=O)(=O)N(C)C)cc21` (stereo not given) displayed an RP-LC retention time of 887 s. The compound `COc1cc(NC(=O)N2CCCC(Cn3c(C)nc4cccnc43)C2)cc(OC)c1` (stereo not given) yielded an RP-LC retention time of 639 s. As for `COCCOCc1nc(C2CCCN2S(=O)(=O)c2cccc3nsnc23)no1` (stereo not given), the figure is 759 s.

`CCOC(=O)N1CCC(NC(=O)Cn2cc(-c3ccc(C)cc3)oc2=O)CC1` registered an RP-LC retention time of 772 s.

With `COc1ccccc1-c1nc(SCC(=O)N2CCC(C(N)=O)CC2)n[nH]1`, the RP-LC retention time is 614 s. In turn, `O=C([C@@H]1C[C@H](F)CN1S(=O)(=O)c1ccccc1)N1CCCCC1` had an RP-LC retention time of 735 s. As for `Cc1nc(-c2csc(S(=O)(=O)N3CCCC(C(=O)Nc4ccc(F)cc4)C3)c2)no1` (stereo not given), the figure is 946 s; as for `O=C(NCc1ccc(F)cc1F)c1csc(C(=O)NC2CC2)n1`, 789 s; as for `O=C(O)c1nnn(-c2ccc3c(c2)OCO3)c1-c1ccncc1`, 612 s. The same measure for `CCOC(=O)C1CCC(CNC(=O)Nc2cccc(-c3nnc(-c4ccccc4)o3)c2)CC1` (stereo not given): 975 s. Compound `COC(=O)c1ccc(NC(=O)CSc2ccc(NC(=O)c3ccccc3F)nn2)cc1` came in with an RP-LC retention time of 805 s. In turn, `O=C(NCc1ccccc1)C1CCN(S(=O)(=O)c2cc(-c3noc(C4CCC4)n3)cs2)CC1` yielded an RP-LC retention time of 1020 s. For `COc1cc2c(cc1OC)C(C(=O)NCCCN1CCCC1)C(c1cccs1)N(C)C2=O` (stereo not given), the RP-LC retention time was 606 s. `CCn1ncn2cc(S(=O)(=O)Nc3ccc(C)c(F)c3)cc2c1=O` yielded an RP-LC retention time of 909 s. With `CCOc1ccccc1NC(=O)C1CC(=O)N(c2n[nH]c3ccccc23)C1` (stereo not given), the RP-LC retention time is 767 s. The compound `CCC(=O)N1CCc2ccccc2C1C(=O)NCc1cccc(Br)c1` (stereo not given) returned an RP-LC retention time of 828 s. As for `CCc1ccc(CNC(=O)Cn2c(CC)nc3onc(C)c3c2=O)cc1`, the figure is 907 s. As for `Cc1cc2c(c(=O)n(-c3ccccc3)c(=O)n2CC(=O)Nc2ccc(C(F)(F)F)cc2)n1C`, the figure is 927 s; as for `N#Cc1ccc(C(=O)Nc2nnc(CSc3ccccc3)o2)cc1`, 749 s. For `CCN1CCN(C(=O)CN2C(=O)C3CCCCN3c3ccc(S(=O)(=O)N(CC)CC)cc32)CC1` (stereo not given), the RP-LC retention time stood at 670 s.

Compound `CCOC(=O)N1CCN(C(=O)Cn2nc(-c3ccccc3)cc(N)c2=O)CC1` gave an RP-LC retention time of 673 s. Turning to `Cc1noc(-c2nn(C)c3c2CN(C(=O)C2(c4ccccc4)CC2)CC3)n1`, the RP-LC retention time was determined as 757 s. As for `CCCN1C(=O)C2CCC(=O)N2c2ccc(C(=O)NCCCN3CCOCC3)cc21` (stereo not given), the figure is 570 s; as for `Cc1cc(S(=O)(=O)N2CCCC(Cn3cnc4cccnc43)C2)ccc1F` (stereo not given), 787 s. The compound `O=C(NCCCN1CCCC1)c1ccc2c(c1)NC(=O)C1CCCCN21` (stereo not given) showed an RP-LC retention time of 588 s. The compound `CCc1ccccc1NC(=O)N(C)CC1CCOC1` (stereo not given) came in with an RP-LC retention time of 699 s. For `Cc1cccc(CNC(=O)C2CCCN2S(=O)(=O)c2cc3c(cc2Cl)NC(=O)CO3)c1` (stereo not given), the RP-LC retention time was found to be 868 s.

In turn, `CCOC(=O)c1ccc(OC(=O)c2cn(CC)c(=O)c3ccccc23)cc1` yielded an RP-LC retention time of 1110 s.

`Cc1ccc2c(Nc3ccc(F)c(Cl)c3)c(-c3nc(C)no3)cnc2n1` registered an RP-LC retention time of 804 s. Consider `CCC(C)C(NC(=O)c1cccc(C)c1)C(=O)Nc1nc2ccccc2[nH]1` (stereo not given), for which the RP-LC retention time came to 765 s.

Compound `Cc1ccccc1N1CCN(C(=O)CCC2CCN(c3cc(NC4CC4)ncn3)CC2)CC1` displayed an RP-LC retention time of 768 s. For `Cn1c(C(=O)Nc2ccc3c(c2)OCCO3)cc2c(=O)oc3ccccc3c21`, the RP-LC retention time worked out at 910 s.

`Cc1ccccc1S(=O)(=O)N1CCC(n2cnnc2C2CC2)CC1` gave an RP-LC retention time of 706 s.

With `CCOc1ccc(N2CCCCn3c2nc2c3c(=O)n(CCOC)c(=O)n2C)cc1`, the RP-LC retention time came out at 853 s. Turning to `Cc1nnc(-c2coc(S(=O)(=O)N(C)C3CCCCC3)c2)o1`, the RP-LC retention time was found to be 906 s. The same measure for `c1ccc2c(Oc3nc(Nc4ccc(N5CCOCC5)cc4)c4ncn(C5CCCCC5)c4n3)cccc2c1`: 1180 s.

(Values after the METLIN SMRT retention time set (Domingo-Almenara et al. 2019).)
